Laboratory results published in patent EP1000543A1, “A method for inducing resistance of plants to mycotoxin-producing fungi” (PROGUARD, INC., priority 1994, dated 1996).

Experiments:
[1] = system: Fusarium subglutinans f. sp. pini; assay: bioassay based on inhibition of radial growth on potato dextrose agar (colony diameter); assay type: cell-based, Fusarium subglutinans f. sp. pini (isolate SL-1, UCB); conditions: for Radical Growth of Fusarium subglutinas f.sp. pini (colony diameter): 18° C, 5 days; for radical growth of Fusarium subglutinans: cinnamic aldehyde in vehicle with or without saponin, glutaraldehyde 2%
Method: A bioassay based on inhibition of radial growth of Fusarium subglutinans f. sp. pini was used to test various aldehyde formulations. The bioassay was performed in a double blind fashion under sterile conditions. All concentrations given are those of particular solutions before dilution in the agar. Eight ml of test formulation was pipetted into 200 ml of molten 2% potato dextrose agar (DIFCO), and the mixture was dispersed into 5 plastic petri dishes (25 ml dish). Test formulations of 5 ppm benomyl were used as a positive control and sterile H2O as a negative control. Each of four plates was inoculated at the center with an agar plug transferred from a growing PDA culture of Fusarium subglutinans f. sp. pini (isolate SL-1, UCB) for each test formulation. A fifth plate was left noninoculated as a control for inhibited growth.
All inoculated and non-inoculated plates were incubated at 18° C for 5 days, after which colony diameters were measured. […] No growth of the colony (diameter=0) indicates a maximum growth inhibition.

[2] = at 25°C; cited from earlier work
[3] = vapor pressure; assay type: physicochemical; conditions: at 25°C

Compound: CCCCNC(=O)n1c(NC(=O)OC)nc2ccccc21 [Benomyl, reference compound]
- Radical Growth of Fusarium subglutinas f.sp. pini (colony diameter) ([1]; positive control, 5 ppm benomyl, no Cinnamic Aldehyde): 0

Compound: O=CCCCC=O [Glutaraldehyde, reference compound]
- Radical Growth of Fusarium subglutinas f.sp. pini (colony diameter) ([1]; 2% glutaraldehyde, no Cinnamic Aldehyde): 3.663
- radical growth of Fusarium subglutinans ([1]; result in words): inhibited

Compound: CCCCCCC(C=O)=Cc1ccccc1 [HCA, 2-hexyl-3-phenyl-2-propenal]
- vapor pressure [2]: 70 x 10^-5 mm Hg

Compound: CCN(CC)c1cccc(C)c1 [N,N-diethyl-m-toluamine, reference compound]
- vapor pressure [2]: 167 x 10^-5 mm Hg

Compound: cinnamic aldehyde
- Radical Growth of Fusarium subglutinas f.sp. pini (colony diameter) ([1]; Cinnamic Aldehyde 10 ppm in 2% Tween 80, 6% NaHCO3, with Saponin): 4.088
- Radical Growth of Fusarium subglutinas f.sp. pini (colony diameter) ([1]; Cinnamic Aldehyde 10 ppm in 2% Tween 80, 6% NaHCO3, no additive, concentration before dilution in agar): 4.363
- Radical Growth of Fusarium subglutinas f.sp. pini (colony diameter) ([1]; Cinnamic Aldehyde 100 ppm in 2% Tween 80, 6% NaHCO3, with Saponin): 4.300
- Radical Growth of Fusarium subglutinas f.sp. pini (colony diameter) ([1]; Cinnamic Aldehyde 100 ppm in 2% Tween 80, 6% NaHCO3, no additive, concentration before dilution in agar): 4.238
- Radical Growth of Fusarium subglutinas f.sp. pini (colony diameter) ([1]; Cinnamic Aldehyde 2,500 ppm in 2% Tween 80, 6% NaHCO3, with Saponin): 3.600
- Radical Growth of Fusarium subglutinas f.sp. pini (colony diameter) ([1]; Cinnamic Aldehyde 2,500 ppm in 2% Tween 80, 6% NaHCO3, no additive, concentration before dilution in agar): 3.513
- Radical Growth of Fusarium subglutinas f.sp. pini (colony diameter) ([1]; Cinnamic Aldehyde 5000 ppm in 2% Tween 80, 6% NaHCO3, with Saponin): 2.913
- Radical Growth of Fusarium subglutinas f.sp. pini (colony diameter) ([1]; Cinnamic Aldehyde 5000 ppm in 2% Tween 80, 6% NaHCO3, no additive, concentration before dilution in agar): 2.980
- Radical Growth of Fusarium subglutinas f.sp. pini (colony diameter) ([1]; Cinnamic Aldehyde 12,500 ppm in 2% Tween 80, 6% NaHCO3, with Saponin): 0
- Radical Growth of Fusarium subglutinas f.sp. pini (colony diameter) ([1]; Cinnamic Aldehyde 12,500 ppm in 2% Tween 80, 6% NaHCO3, no additive, concentration before dilution in agar): 0
- Radical Growth of Fusarium subglutinas f.sp. pini (colony diameter) ([1]; Cinnamic Aldehyde 25,000 ppm in 2% Tween 80, 6% NaHCO3, with Saponin): 0
- Radical Growth of Fusarium subglutinas f.sp. pini (colony diameter) ([1]; Cinnamic Aldehyde 25,000 ppm in 2% Tween 80, 6% NaHCO3, no additive, concentration before dilution in agar): 0
- Radial growth ([1]; result in words, at 12,500 ppm): completely inhibited
- radical growth of Fusarium subglutinans ([1]; result in words): inhibited
- vapor pressure relative to HCA [3]: approximately 40 times higher
- vapor pressure [2]: 2970 x 10^-5 mm Hg
